From patent US10141017B2, “Lubricant for magnetic recording medium, and magnetic recording medium” (Dexerials Corporation, priority 2015, dated 2018)
Where two headings read alike, the source gives them in different places.

Key:
[1] = Measurement of thermal decomposition temperature (TG-DTA, 5% weight reduction); format: physicochemical
Description: As measuring conditions, the heating speed was 10° C./min and the air flow rate was 200 mL/min.

[2] = Solubility to fluorine-based solvent; settings: 25° C.
Description: Various fluorine-based solvents were each added in a manner that a concentration was to be 1% by mass, and the resultant was stirred with maintaining the temperature at 25° C. The solubility was evaluated based on the following evaluation criteria.
• 1: The ionic liquid was dissolved in the fluorine-based solvent, and no precipitation was generated even after leaving the solution to stand. • 2: The ionic liquid was insoluble to the fluorine-based solvent, or was partially dissolved but precipitation was generated when the solution was left to stand. <<Friction Properties>> —Production of Lubricant-Coated Hard Disk—

[3] = Comprehensive evaluation (thermal decomposition temperature, friction properties, solubility)
[4] = TG-DTA, heating speed 10° C./min, air flow 200 mL/min

Molecule	Thermal decomposition (5% weight reduction) temperature [1, 4]	Solubility to fluorine-based solvent ([2]; Novec 7100, 1% by mass)	Solubility to fluorine-based solvent ([2]; Novec 7200, 1% by mass)	Solubility to fluorine-based solvent ([2]; Novec 7300, 1% by mass)	Solubility to fluorine-based solvent ([2]; Vertrel XF, 1% by mass)	Thermal decomposition (5% weight reduction) temperature [1]	Thermal stability and friction coefficient (in words) [3]
NCCOCC(F)(F)OC(F)(F)C(F)(F)OC(F)(F)C(F)(F)OC(F)(F)C(F)(F)C(F)(F)C(F)(F)F.O=S(=O)(O)CCCOCC(F)(F)OC(F)(F)C(F)(F)OC(F)(F)C(F)(F)OC(F)(F)C(F)(F)C(F)(F)C(F)(F)F [Ex. 1, PFTEG amine-PFTEG sulfonic acid salt]	246 °C	1	1	1	1	–	–
NCCC(F)(F)C(F)(F)C(F)(F)C(F)(F)C(F)(F)C(F)(F)C(F)(F)C(F)(F)F.O=S(=O)(O)CCCOCC(F)(F)OC(F)(F)C(F)(F)OC(F)(F)C(F)(F)OC(F)(F)C(F)(F)C(F)(F)C(F)(F)F [Ex. 2, 1H,1H,2H,2H-perfluorodecylamine-PFTEG sulfonic acid salt]	–	–	–	–	–	254 °C	–
NCCOCC(F)(F)OC(F)(F)C(F)(F)OC(F)(F)C(F)(F)OC(F)(F)C(F)(F)C(F)(F)C(F)(F)F.O=S(=O)(O)C(F)(F)C(F)(F)C(F)(F)C(F)(F)F [Ex. 3, PFTEG amine-perfluorobutane sulfonic acid salt]	302 °C	1	1	1	1	–	more excellent
NCCC(F)(F)C(F)(F)C(F)(F)C(F)(F)C(F)(F)C(F)(F)C(F)(F)C(F)(F)F.O=C(O)C(F)(F)OC(F)(F)C(F)(F)OC(F)(F)C(F)(F)OC(F)(F)C(F)(F)C(F)(F)C(F)(F)F [Ex. 4, 1H,1H,2H,2H-perfluorodecylamine-perfluoro-3,6,9-trioxatridecanoic acid salt]	169 °C	1	1	1	1	–	–
NCCOCC(F)(F)OC(F)(F)C(F)(F)OC(F)(F)C(F)(F)OC(F)(F)C(F)(F)C(F)(F)C(F)(F)F.O=S(=O)(NS(=O)(=O)C(F)(F)C(F)(F)C(F)(F)C(F)(F)F)C(F)(F)C(F)(F)C(F)(F)C(F)(F)F [Ex. 5, PFTEG amine-bis(perfluorobutanesulfonyl)imide salt]	291 °C	1	1	1	1	–	–
NCCC(F)(F)C(F)(F)C(F)(F)C(F)(F)C(F)(F)C(F)(F)C(F)(F)C(F)(F)F.O=S(=O)(O)C(F)(F)C(F)(F)C(F)(F)C(F)(F)F [compound 2, 1H,1H,2H,2H-perfluorodecylamine-perfluorobutane sulfonic acid salt, reference compound]	308 °C	2	2	2	2	–	–
octadecylamine-perfluoroheptanoic Acid Salt [compound 3, reference compound]	204 °C	2	2	2	2	–	–
octylamine-PFTEG sulfonic Acid Salt [Comp. Ex. 1, reference compound]	276 °C	–	–	–	–	–	–
